From patent US20190070128A1, “USE OF CANNABIDIVARIN IN THE TREATMENT OF AUTISM SPECTRUM DISORDER, ASSOCIATED DISORDERS AND SCHIZOPHRENIA” (GW Research Limited, priority 2016, published 2019)
Entries after “also recorded” stand apart in the source; their conditions may differ.

Key:
[1] = tested on: VPA-exposed rats; experiment: sociability and preference for social novelty, 3-chamber apparatus, prenatal VPA model; type: in vivo, rat
Experimental: (§1) Pregnant Sprague-Dawley rats (Charles River, Calco, Italy), received a single intraperitoneal injection of 500 mg/kg sodium valproate on the 12.5 day after conception, and control females were injected with physiological saline at the same time. Sodium valproate (Sigma Aldrich, Milan, IT) was dissolved in saline at a concentration of 250 mg/ml.
CBDV was dissolved in ethanol, cremophor and saline (1:1:18). Symptomatic treatment with CBDV at doses of 0.2, 2, 20, and 100 mg/kg/day i.p. was performed starting from PND 34 (early adolescence) till 56 (early adulthood), both in male and female offspring of dams injected with VPA 500 mg/kg (or vehicle) on day 12.5 after conception. At PND 56, a series of behavioural tests was performed in order to assess the effect of chronic CBDV on sociability, social novelty, short-term memory, locomotion and stereotyped/repetitive behaviours.
Sociability and preference for social novelty: These behaviours were investigated in a 3-chamber apparatus which allows for the measurement of social approach and social preference. In brief, animals were placed into a novel arena (80 cm×31.5 cm) composed of three communicating chambers separated by Perspex walls with central openings allowing access to all chambers for 5 min.
Following this acclimatisation period, animals were briefly confined to the central chamber while an unfamiliar rat confined in a small wire cage was placed in one of the outer chambers. An identical empty wire cage was placed in the other chamber. The unfamiliar rat was randomly assigned to either the right or left chamber of the arena. The test animal was then allowed to explore the arena/chambers for a further 5 min. Time spent engaging in investigatory behaviour with the rat was evaluated with the aid of Anymaze program (Ugo Basile, Italy) in order to examine social approach.
To investigate the preference for social novelty, a novel unfamiliar rat was then placed in the empty cage and the test animal was then allowed to explore the arena/chambers for a further 5 min. Time spent engaging in investigatory behaviour with the novel unfamiliar rat was evaluated with the aid of Anymaze program (Ugo Basile, Italy) in order to examine preference for social novelty.

[2] = tested on: VPA-exposed rats; experiment: short-term memory, novel object recognition test, prenatal VPA model; type: in vivo, rat
Experimental: as §1
CBDV was dissolved in ethanol, cremophor and saline (1:1:18). Symptomatic treatment with CBDV at doses of 0.2, 2, 20, and 100 mg/kg/day i.p. was performed starting from PND 34 (early adolescence) till 56 (early adulthood), both in male and female offspring of dams injected with VPA 500 mg/kg (or vehicle) on day 12.5 after conception. […]
Short-term memory: The experimental apparatus used for the object recognition test was an open-field box (43×43×32 cm) made of Plexiglas, placed in a dimly illuminated room. The experiment was performed and analysed as previously described (Zamberletti et al, 2014). […]
Each animal was placed in the arena and allowed to explore two identical previously unseen objects for 5 minutes (familiarization phase). […] During the test phase the time spent exploring the familiar object (Ef) and the new object (En) was videotaped and recorded separately by two observers blind to the treatment groups and the discrimination index was calculated as follows: [(En−Ef)/(En+Ef)]×100.

[3] = tested on: Fmr1 KO and WT mice; experiment: susceptibility to audiogenic seizures in Fmr1 KO and WT mice (PND21); type: in vivo, mouse; conditions: for audiogenic seizures: FXS mice
Experimental: This trait was evaluated in PND21 mice after acute administration of the compounds or its vehicle, 30 min before starting the procedure. To measure audiogenic seizure sensitivity mice were placed individually into a novel environment, a glass cylinder (40 cm high, 16 cm diameter) and allowed to explore for 1 min. Next, a bell (100 dB) was rung for 30 sec and seizure activity scored according to the following scale: no response, 0; wild running, 1; clonic seizure, 2; tonic seizure, 3; status epilepticus/respiratory arrest/death, 4.
On postnatal day 21 (PND21) WT and Fmr1 KO mice were injected with CBDV (2, 10, 20 or 100 mg/kg) or vehicle, 30 min before exposure to a bell ring (100 dB). Mice exposed to this noise for 30 sec ceased from their normal exploratory behaviour and reacted with gradually to wild-running, clonic seizure, tonic seizure or death. The maximum response was annotated for each mouse as detailed in Table 2 below. A score was calculated according to the severity of the symptoms as explained in the Methods section.

[4] = target: T1, hCB1 (Homo sapiens, UniProt P21554); conditions: cited from earlier work
[5] = tested on: animal models of seizure; conditions: in vivo; cited from earlier work
[6] = target: T1, hCB1; design: expressed in transfected cells; host or cells: CHO cells expressing hCB1 (membranes); conditions: hCB1-CHO cell membranes; extract compared with purified CBDV; cited from earlier work
[7] = WT, CBDV 2 mg/kg, n = 6, acute (30 min)
[8] = WT, CBDV 10 mg/kg, n = 5, acute (30 min)
[9] = WT, CBDV 20 mg/kg, n = 6, acute (30 min)
[10] = WT, CBDV 100 mg/kg, n = 6, acute (30 min)

T1 sequence (P21554 whole entry): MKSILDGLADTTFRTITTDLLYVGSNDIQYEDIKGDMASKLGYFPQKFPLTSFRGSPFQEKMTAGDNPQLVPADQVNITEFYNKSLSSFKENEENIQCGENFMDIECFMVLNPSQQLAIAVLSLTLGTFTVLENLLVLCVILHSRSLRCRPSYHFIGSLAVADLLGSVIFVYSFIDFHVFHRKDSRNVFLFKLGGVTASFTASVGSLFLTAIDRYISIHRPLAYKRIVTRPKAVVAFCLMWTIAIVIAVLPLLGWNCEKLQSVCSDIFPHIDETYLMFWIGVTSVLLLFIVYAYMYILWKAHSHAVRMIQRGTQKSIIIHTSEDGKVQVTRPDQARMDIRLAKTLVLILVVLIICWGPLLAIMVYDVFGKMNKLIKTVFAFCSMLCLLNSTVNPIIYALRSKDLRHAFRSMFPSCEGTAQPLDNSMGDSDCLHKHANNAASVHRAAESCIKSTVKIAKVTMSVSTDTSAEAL

## C=C(C)[C@@H]1CCC(C)=C[C@H]1c1c(O)cc(CCC)cc1O [CBDV, Cannabidivarin]
[1]; 20 mg/kg and 100 mg/kg
  deficit in social preference: reversed
[1]; 20 mg/kg/day i.p. PND 34-56, p<0.001 in males, p<0.01 in females
  restoration of social novelty preference: statistically significant effect
[1]; VPA alone about 48%
  reduction of preference index in VPA-CBDV animals compared to controls: about 13%
[1]; all doses (0.2, 2, 20, 100 mg/kg/day i.p.)
  impairment in sociability: significantly reduced
[2]; male and female VPA rats, 2, 20 and 100 mg/kg
  short-term memory deficit (discrimination index): completely and significantly reversed
[2]; vehicle-treated (non VPA) rats
  recognition memory per se: without affecting
[3]; 2 mg/kg, 0.5 h
  audiogenic seizures, maximum response: Clonic seizure: 0
  audiogenic seizures, maximum response: No response: 2
  audiogenic seizures, maximum response: Tonic seizure: 2
  audiogenic seizures, maximum response: Wild running: 1
[3]; 10 mg/kg, 0.5 h
  audiogenic seizures, maximum response: Clonic seizure: 0
  audiogenic seizures, maximum response: No response: 0
  audiogenic seizures, maximum response: Tonic seizure: 2
  audiogenic seizures, maximum response: Wild running: 3
[3]; 20 mg/kg, 0.5 h
  audiogenic seizures, maximum response: Clonic seizure: 0
  audiogenic seizures, maximum response: No response: 2
  audiogenic seizures, maximum response: Tonic seizure: 2
  audiogenic seizures, maximum response: Wild running: 1
[3]; 100 mg/kg, 0.5 h
  audiogenic seizures, maximum response: Clonic seizure: 0
  audiogenic seizures, maximum response: No response: 5
  audiogenic seizures, maximum response: Tonic seizure: 0
  audiogenic seizures, maximum response: Wild running: 0
[3]; FXS (Fmr1 KO), CBDV 2 mg/kg, n = 5, acute (30 min)
  audiogenic seizures, maximum response: Death: 0
[3]; FXS (Fmr1 KO), CBDV 10 mg/kg, n = 5, acute (30 min)
  audiogenic seizures, maximum response: Death: 0
[3]; FXS (Fmr1 KO), CBDV 20 mg/kg, n = 5, acute (30 min)
  audiogenic seizures, maximum response: Death: 0
[3]; FXS (Fmr1 KO), CBDV 100 mg/kg, n = 5, acute (30 min)
  audiogenic seizures, maximum response: Death: 0
[3]; 100 mg/kg acute, 100 mg/kg
  audiogenic seizures: remained seizure free; also recorded: completely eliminate the seizures
[3]; lower doses
  audiogenic seizures: seizures of varying severity
[3]; [7]
  audiogenic seizures, maximum response: Clonic seizure: 0
  audiogenic seizures, maximum response: Death: 0
  audiogenic seizures, maximum response: No response: 6
  audiogenic seizures, maximum response: Tonic seizure: 0
  audiogenic seizures, maximum response: Wild running: 0
[3]; [8]
  audiogenic seizures, maximum response: Clonic seizure: 0
  audiogenic seizures, maximum response: Death: 0
  audiogenic seizures, maximum response: No response: 5
  audiogenic seizures, maximum response: Tonic seizure: 0
  audiogenic seizures, maximum response: Wild running: 0
[3]; [9]
  audiogenic seizures, maximum response: Clonic seizure: 0
  audiogenic seizures, maximum response: Death: 0
  audiogenic seizures, maximum response: No response: 5
  audiogenic seizures, maximum response: Tonic seizure: 0
  audiogenic seizures, maximum response: Wild running: 1
[3]; [10]
  audiogenic seizures, maximum response: Clonic seizure: 0
  audiogenic seizures, maximum response: Death: 0
  audiogenic seizures, maximum response: No response: 6
  audiogenic seizures, maximum response: Tonic seizure: 0
  audiogenic seizures, maximum response: Wild running: 0
[4]
  affinity for the CB1 receptor: low affinity
[5]
  effect in animal models of seizure: effective
[6]
  affinity for CB1 cannabinoid receptors: neither bound with high enough affinity
